US20130289070A1, “Use of Levocabastine for Modulating Generation of Pro-Inflammatory Cytokines” (Bausch & Lomb Incorporated, priority 2007, published 2013)

Test system: EoL-1 (human eosinophilic leukaemia cell line) cells
Test: TNF-α-induced cytokine release, non-differentiated EoL-1 cells (NO PMA) (Luminex)
Format: cell-based
Set-up: key to Fractalkine (NO PMA), p of decrement / IL-1α (NO PMA), p of decrement / IL-1β (NO PMA), p of decrement / IL-1ra (NO PMA), p of decrement / IL-5 (NO PMA), p of decrement / IL-7 (NO PMA), p of decrement / IL-8 (NO PMA), p of decrement / IP-10 (NO PMA), p of decrement / MCP-1 (NO PMA), p of decrement / MIP-1β (NO PMA), p of decrement / VEGF (NO PMA), p of decrement: ns = non significant
Procedure: EoL-1 (human eosinophilic leukaemia cell line) cells (Saito et al., 1985; Mayumi, 1992) were maintained in RPMI-1640 medium with L-glutamine supplemented with 10% (v/v) FBS at 37° C. in a humidified atmosphere with 5% CO2. Where indicated, 24 h before the experiment 25 ng/mL PMA ((phorbol 12-myristate 13-acetate, purchased from Sigma Aldrich) was added to the medium to induce eosinophil granulation and differentiation (Ohtsu et al., 1993; Zimmermann et al., 2000).
Half-million cells were aliquoted per point in a 24 well plate; each experiment was performed in triplicate and carried out in parallel with eosinophils differentiated and non differentiated with PMA (25 ng/mL, 24 h). Cells were suspended in low serum medium (RPMI-1640, 0.1% (v/v) FBS). TNF-α was used to induce cytokine secretion as previously described by Steube et al. (2000), and the net release was obtained by comparison to the basal (non-TNF-α treated). In the first experiment we evaluated the concentration and time relation between TNF-α stimulation and cytokine release. Therefore, 5, 10, and 25 ng/mL of TNF-α was administered to the cells at 0, ½, 1, 2, 3, 6, 12 and 24 h (data not shown). An aliquot of 150 μL of supernate was collected for cytokines' analysis. […] Differentiated and non-differentiated EoL-1 cells were exposed from 0.1 to 2.3 mM levocabastine ([…]Levocabastine 0.05% solution eye drops containing cyclodextrins, without benzalkonium chloride), and aliquots of the supernates were collected after 12 and 24 h. The content of cytokines at time zero was estimated by treating the cells with 400 nM calcimycin (A-23187), which is a cytolytic agent that frees all the mediators from the cytoplasmic compartment. In addition, for each experiment we tested the effect of the vehicle, which was added to the wells in a concentration equal to the maximum amount used for drug dilution.
Samples (supernates 12 and 24 h) in triplicate were analyzed using Luminex 200™ (Luminex, Austin, Tex.) and Beadview software v1.0 (Upstate Cell Signaling Solutions, Temecula, Calif.).
All data are presented as mean±SEM for the indicated number of experiments. Statistical significance was determined by Newman-Keuls test after ANOVA using GraphPad Prism (version 3.0; GraphPad Software Inc., San Diego, Calif., USA). P-values<0.05 were considered to be significant.

[1] = 24 h, FN + Levocabastine 2 mM vs FN
[2] = 24 h, Levocabastine 2 mM vs TNF-α

## C[C@@H]1CN([C@H]2CC[C@](C#N)(c3ccc(F)cc3)CC2)CC[C@]1(C(=O)O)c1ccccc1 [Levocabastine, levocabastine]
12 h, TNF-α vs Lev 0.5 mM
  IL-5 (NO PMA), p of decrement: ns
  IL-7 (NO PMA), p of decrement: ns
  IL-8 (NO PMA), p of decrement: ns
  IP-10 (NO PMA), p of decrement: ns
  MCP-1 (NO PMA), p of decrement: ns
  MIP-1β (NO PMA), p of decrement: ns
  VEGF (NO PMA), p of decrement: ns
12 h, TNF-α vs Lev 1.0 mM
  Fractalkine (NO PMA), p of decrement: ns
  IL-1ra (NO PMA), p of decrement: ns
  IL-1α (NO PMA), p of decrement: ns
  IL-1β (NO PMA), p of decrement: ns
  IL-5 (NO PMA), p of decrement: ns
  IL-7 (NO PMA), p of decrement: ns
  IL-8 (NO PMA), p of decrement: ns
  IP-10 (NO PMA), p of decrement: ns
  MCP-1 (NO PMA), p of decrement: ns
  MIP-1β (NO PMA), p of decrement: ns
  VEGF (NO PMA), p of decrement: ns
12 h, TNF-α vs Lev 2.3 mM
  Fractalkine (NO PMA), p of decrement: ns
  IL-1ra (NO PMA), p of decrement: ns
  IL-1α (NO PMA), p of decrement: ns
  IL-1β (NO PMA), p of decrement: ns
  IL-5 (NO PMA), p of decrement: ns
  IL-7 (NO PMA), p of decrement: ns
  IL-8 (NO PMA), p of decrement: ns
  IP-10 (NO PMA), p of decrement: ns
  MCP-1 (NO PMA), p of decrement: ns
  MIP-1β (NO PMA), p of decrement: ns
  VEGF (NO PMA), p of decrement: ns
12 h, TNF-α vs Lev 0.1-2.3 mM
  MIP-1α (NO PMA), change of secretion: concentration dependent increase of
  MIP-1α (NO PMA), p of increase: cytokine secretion p < 0.01
  RANTES (NO PMA), change of secretion: increase of cytokine secretion
  RANTES (NO PMA), p of increase: < 0.001
[1]
  Fractalkine (NO PMA), p of decrement: ns
  G-CSF (NO PMA), p of decrement: ns
  GM-CSF (NO PMA), p of decrement: ns
  IL-1ra (NO PMA), p of decrement: P < 0.001
  IL-1α (NO PMA), p of decrement: ns
  IL-1β (NO PMA), p of decrement: ns
  IL-5 (NO PMA), p of decrement: ns
  IL-6 (NO PMA), p of decrement: P < 0.001
  IL-7 (NO PMA), p of decrement: ns
  IL-8 (NO PMA), p of decrement: P < 0.001
  IL-10 (NO PMA), p of decrement: ns
  IL-12p40 (NO PMA), p of decrement: P < 0.05
  IP-10 (NO PMA), p of decrement: ns
  MCP-1 (NO PMA), p of decrement: Increase
  MIP-1α (NO PMA), p of decrement: Increase
  MIP-1β (NO PMA), p of decrement: ns
  RANTES (NO PMA), p of decrement: Increase
  TGF-α (NO PMA), p of decrement: ns
  VEGF (NO PMA), p of decrement: P < 0.001
[2]
  Fractalkine (NO PMA), p of decrement: ns
  G-CSF (NO PMA), p of decrement: ns
  GM-CSF (NO PMA), p of decrement: ns
  IL-1ra (NO PMA), p of decrement: P < 0.001
  IL-1α (NO PMA), p of decrement: ns
  IL-1β (NO PMA), p of decrement: ns
  IL-5 (NO PMA), p of decrement: ns
  IL-6 (NO PMA), p of decrement: P < 0.001
  IL-7 (NO PMA), p of decrement: ns
